ChEMBL document CHEMBL1268882, “Synthesis and biological evaluation of novel triptolide analogues for anticancer activity” (Bioorg Med Chem Lett, 2010)

How the values were obtained:
SK-OV-3 = assay: Antiproliferative activity against human SKOV3 cells after 72 hrs by SRB assay; assay type: functional, cell-based; conditions: SK-OV-3, 72 h
PC-3 = assay: Antiproliferative activity against human PC3 cells after 72 hrs by SRB assay; assay type: functional, cell-based; conditions: PC-3, 72 h

SMILES	IC50 (SK-OV-3)	IC50 (PC-3)
CC(C)[C@@]12O[C@@H]1[C@H]1O[C@]13[C@@]1(C)CCC4=C(COC4=O)[C@H]1C[C@@H]1O[C@@]13C2=O	> 100000 nM	> 100 µM
CC(C)[C@]12O[C@H]1[C@H](O)[C@@]1(O)[C@@]3(C)CCC4=C(COC4=O)[C@@H]3C[C@@H]3O[C@@]31C2=O	> 100000 nM	> 100 µM
CC(C)[C@]12O[C@H]1[C@@H]1O[C@]13[C@]1(O[C@H]1C[C@H]1C4=C(CC[C@@]13C)C(=O)OC4)[C@@H]2O [TRIPTOLIDE]	6 nM	–
CC(C)[C@]12O[C@H]1[C@@H]1O[C@@]13[C@@]1(C)CCC4=C(CNC4=O)[C@@H]1C[C@@H]1O[C@@]13C2=O	20 nM	14 µM
CC(C)[C@]12O[C@H]1C=C1[C@]3(O[C@H]3C[C@H]3C4=C(CC[C@]13C)C(=O)OC4)[C@@H]2O	0.05 nM	0.01 µM
CC(C)[C@]12O[C@H]1C=C1[C@]3(O[C@H]3C[C@@H]3C4=C(CC[C@]13C)C(=O)OC4)[C@@H]2O	> 100000 nM	> 100 µM
CC(C)[C@]12O[C@H]1[C@H]1O[C@]13[C@@]1(C)CCC4=C(COC4=O)[C@H]1C[C@@H]1O[C@@]13C2=O	> 100000 nM	> 100 µM
CC(C)[C@]12O[C@H]1C=C1[C@]3(O[C@H]3C[C@H]3C4=C(CC[C@]13C)C(=O)NC4)C2=O	20 nM	0.9 µM
CC(C)[C@]12O[C@H]1[C@H]1O[C@]13[C@@]1(C)CCC4=C(COC4=O)[C@H]1C[C@H]1O[C@@]13C2=O	4600 nM	> 100 µM
CC(C)[C@@]12O[C@@H]1C=C1[C@]3(O[C@@H]3C[C@@H]3C4=C(CC[C@]13C)C(=O)OC4)[C@@H]2O	56000 nM	> 100 µM
CC(C)[C@]12O[C@H]1C=C1[C@]3(O[C@H]3C[C@H]3C4=C(CC[C@]13C)C(=O)OC4)[C@H]2O	500 nM	29 µM
CC(C)[C@@]12O[C@@H]1C=C1[C@]3(O[C@H]3C[C@@H]3C4=C(CC[C@]13C)C(=O)OC4)C2=O	95000 nM	> 100 µM
CC(C)[C@]12O[C@H]1C=C1[C@]3(O[C@H]3C[C@@H]3C4=C(CC[C@]13C)C(=O)OC4)C2=O	66000 nM	29 µM
CC(C)[C@]12O[C@H]1C=C1[C@]3(O[C@H]3C[C@H]3C4=C(CC[C@]13C)C(=O)OC4)C2=O	3 nM	2.7 µM
CC(C)[C@]12O[C@H]1[C@@H]1O[C@@]13[C@@]1(C)CCC4=C(COC4=O)[C@@H]1C[C@@H]1O[C@@]13C2=O [TRIPTONIDE]	8 nM	0.6 µM
